Each block holds one molecule with its values, some of them ahead of it.
Assay: photoluminescence quantum yield (fraction); solvent given as SMILES

photoluminescence quantum yield (in CC#N): 0.068
Compound: CCN(CC)c1ccc(/C=N/C2CCCCC2/N=C/c2ccc(N(CC)CC)cc2O)c(O)c1 (centres undefined)

photoluminescence quantum yield (in CO): 0.21
photoluminescence quantum yield (in CS(C)=O): 0.26
Compound: CCC1=C(C)C2=Cc3c4ccccc4c4n3[B-](c3cc[n+](C)cc3)(Oc3ccccc3-4)[N+]2=C1C=Cc1ccc(OC)cc1 (centres undefined)

photoluminescence quantum yield (in CCCCCC): 0.13
Compound: CC(C)[Si](C#Cc1c2nsnc2c(C#C[Si](C(C)C)(C(C)C)C(C)C)c2nc3c(ccc4cc5ccccc5cc43)nc12)(C(C)C)C(C)C

photoluminescence quantum yield (in c1ccccc1): 0.697
Compound: Nc1ccc2nc(-c3ccccc3)c(=O)oc2c1

photoluminescence quantum yield (in CCOC(C)=O): 0.35
Compound: CCn1c(-c2ccc(-c3cccc4ccccc34)cc2)c(-c2ccc3ccccc3c2)c(-c2ccc3ccccc3c2)c1-c1ccc(-c2cccc3ccccc23)cc1

photoluminescence quantum yield (in C1CCOC1): 0.11
photoluminescence quantum yield (in ClCCl): 0.13
Compound: CCC(CC)COC1=CC2=C3c4cc(OCC(CC)CC)c(-c5ccccc5)n4[B-](F)(F)[n+]4c3n(c3cc(C(C)(C)C)ccc34)[B-](F)(F)[N+]2=C1c1ccccc1

photoluminescence quantum yield (in ClCCl): 0.00065
Compound: COc1cc2c(cc1OC)C1=C[C@H](c3ccc(Cl)cc3)C3(C(C#N)=C(C#N)N1CC2)c1cc(Cl)ccc1-c1ccc(Cl)cc13

photoluminescence quantum yield (in C1CCOC1): 0.035
photoluminescence quantum yield (in C1COCCO1): 0.0009
photoluminescence quantum yield (in CC#N): 0.0005
photoluminescence quantum yield (in CC(C)O): 0.001
photoluminescence quantum yield (in CCCCO): 0.003
photoluminescence quantum yield (in CCCO): 0.001
photoluminescence quantum yield (in CCOC(C)=O): 0.002
photoluminescence quantum yield (in CN(C)C=O): 0.001
photoluminescence quantum yield (in CO): 0.003
photoluminescence quantum yield (in CS(C)=O): 0.003
photoluminescence quantum yield (in ClC(Cl)Cl): 0.002
photoluminescence quantum yield (in O): 0.001
Compound: N#Cc1coc2ccccc2c1=O

photoluminescence quantum yield (in ClCCl): 0.82
Compound: CCOC(=O)c1ccc(C2=Cc3ccccc3P2(=O)c2ccccc2)cc1 (centres undefined)

photoluminescence quantum yield (in ClCCl): 0.0006
Compound: Cc1ccc(N(c2ccc(C)cc2)c2ccc(Oc3nnc(Cl)nn3)cc2)cc1

photoluminescence quantum yield (in C1CCOC1): 0.31
Compound: F[B-]1(F)n2c(-c3ccccc3)cc(-c3ccccc3)c2C(c2ccccc2)=C2C(c3ccccc3)=CC(c3ccccc3)=[N+]21

photoluminescence quantum yield (in C1CCOC1): 0.0031
photoluminescence quantum yield (in CC#N): 0.0035
photoluminescence quantum yield (in CCCCO): 0.0007
photoluminescence quantum yield (in CO): 0.0037
photoluminescence quantum yield (in CS(C)=O): 0.0022
Compound: CC(=O)Nc1ccc(O)cc1

photoluminescence quantum yield (in CC#N): 0.73
Compound: Cc1ccc(C#Cc2cc3ccccc3oc2=O)cc1

photoluminescence quantum yield (in CC#N): 0.0066
Compound: COC(=O)[C@@]12N=N[C@@H](C3C[C@H]31)[C@@H]1C[C@@H]12 (some centres undefined)

photoluminescence quantum yield (in ClCCl): 0.17
Compound: COC(=O)c1cc(=O)n(C)c2cc(-c3ccccc3N(C)C)sc12

photoluminescence quantum yield (in ClCCl): 0.86
Compound: c1ccc(C2=C(c3ccccc3)c3cccc4c3c(cc3nc5cc(-c6ccccc6)c(-c6ccccc6)cc5nc34)O2)cc1

photoluminescence quantum yield (in ClCCl): 0.38
Compound: CCCCC(CC)Cn1c2cc(C#N)ccc2c2ccc(C#Cc3ccc4ccc5c(C#Cc6ccc7c8ccc(C#N)cc8n(CC(CC)CCCC)c7c6)ccc6ccc3c4c65)cc21 (centres undefined)

photoluminescence quantum yield (in CC(C)O): 0.13
Compound: CCN1C(=CC2=C([O-])C(=Cc3sc4ccccc4[n+]3CC)C2=O)Sc2ccccc21

photoluminescence quantum yield (in CCCCCC): 1
photoluminescence quantum yield (in CCCCCCCCO): 0.72
photoluminescence quantum yield (in CCOC(C)=O): 0.81
photoluminescence quantum yield (in CN(C)C=O): 0.67
photoluminescence quantum yield (in ClCCl): 0.8
Compound: CC1=CC(C)=[N+]2C1=Cc1c3ccccc3c(C#Cc3ccsc3)n1[B-]2(F)F

photoluminescence quantum yield (in CC#N): 0.017
Compound: Cc1sc(Cl)cc1-c1nc(-c2ccccc2)[nH]c1-c1cc(Cl)sc1C

photoluminescence quantum yield (in ClCCl): 0.77
Compound: C[Si]1(C)c2cc(-c3cccs3)ccc2C=Cc2ccc(-c3cccs3)cc21

photoluminescence quantum yield (in CN(C)C=O): 0.48
Compound: Fc1cc(-c2ccc(-c3nc4cc(Br)ccc4[nH]3)cc2)ccc1-c1ccc(-c2nc3cc(Br)ccc3[nH]2)cc1

photoluminescence quantum yield (in ClCCl): 0.79
Compound: O=C1c2cccc3cc(C#CC#Cc4cc5c6c(cccc6c4)C(=O)N(c4ccccc4)C5=O)cc(c23)C(=O)N1c1ccccc1

photoluminescence quantum yield (in ClCCl): 0.27
Compound: Cc1ccc2nc3cc4c(cc3c(-c3ccccc3)c2c1)[Si](C)(C)O[Si]4(C)C

photoluminescence quantum yield (in C1CCCCC1): 0.79
Compound: Cc1cc(C)c(B2c3cc(C(C)(C)C)cc4ccc5ccc6cc(C(C)(C)C)cc2c6c5c34)c(C)c1

photoluminescence quantum yield (in C1CCCCC1): 0.91
Compound: Cc1cc(C)c(B2c3cc(C(C)(C)C)ccc3-c3c(-c4ccccc4)ccc4cc(C(C)(C)C)cc2c34)c(C)c1

photoluminescence quantum yield (in C1CCOC1): 0.19
photoluminescence quantum yield (in CS(C)=O): 0.17
photoluminescence quantum yield (in ClCCl): 0.24
Compound: COCCOCCOCCOc1ccc(/C=C/C2=[N+]3C(=C(c4cc(OC)cc(OC)c4)c4c(C)c(I)c(/C=C/c5ccc(OCCOCCOCCOC)cc5)n4[B-]3(F)F)C(C)=C2I)cc1

photoluminescence quantum yield (in ClC(Cl)Cl): 0.24
Compound: Cc1cc(C)c(C2=C3C=CC=[N+]3[B-]3(c4ccc5ccc6cccc7ccc4c5c67)Oc4cc(O)cc5c6ccc(C)cc6c6cc2n3c6c45)c(C)c1 (centres undefined)

photoluminescence quantum yield (in ClCCl): 0.29
Compound: O=c1oc2ccccc2c2c1c(=O)oc1c3ccccc3cc(O)c12

More lines, now with the values behind:

Compound: CCCCCCCCOC(=O)c1ccc(-c2cc3ccc4cc(-c5ccc(C(=O)OCCCCCCCC)cc5)cc5ccc(c2)c3c45)cc1
photoluminescence quantum yield (in Cc1ccccc1): 0.33

Compound: CCCCCC(CC)C1(C(CC)CCCCC)c2ccccc2-c2ccc(C#Cc3cc(C#Cc4ccc5c(c4)C(C(CC)CCCCC)(C(CC)CCCCC)c4ccccc4-5)c4ccc5c(C#Cc6ccc7c(c6)C(C(CC)CCCCC)(C(CC)CCCCC)c6ccccc6-7)cc(C#Cc6ccc7c(c6)C(C(CC)CCCCC)(C(CC)CCCCC)c6ccccc6-7)c6ccc3c4c65)cc21 (centres undefined)
photoluminescence quantum yield (in Cc1ccccc1): 0.67

Compound: CCCCCCOc1ccc(N(c2ccc(OCCCCCC)cc2)c2ccc(-c3sc(-c4ccc(N(c5ccc(OCCCCCC)cc5)c5ccc(OCCCCCC)cc5)cc4)c4nc(CC)c(CC)nc34)cc2)cc1
photoluminescence quantum yield (in CN(C)C=O): 0.0205
photoluminescence quantum yield (in ClC(Cl)Cl): 0.0225

Compound: CN1c2cc3nc4cc(Cl)c(Cl)cc4nc3cc2N(C)C1(C)C
photoluminescence quantum yield (in CCO): 0.7

Compound: COc1ccc(OC)c(C2=C3C=CC(=[N+](C)C)C=C3[Si](C)(C)c3cc(N(C)C)ccc32)c1
photoluminescence quantum yield (in O): 0.025

Compound: CC(C)(C)c1ccc(C(C)(C)C)c(N2C(=O)c3cccc4c(-c5ccc(-c6ccccc6)s5)ccc(c34)C2=O)c1
photoluminescence quantum yield (in CO): 0.34
photoluminescence quantum yield (in CS(C)=O): 0.43
photoluminescence quantum yield (in Cc1ccccc1): 0.06

Compound: Fc1c(F)c(-n2c3ccccc3c3ccccc32)c(F)c(F)c1/C=C/c1ccc(C(=C(c2ccccc2)c2ccccc2)c2ccccc2)cc1
photoluminescence quantum yield (in Cc1ccccc1): 0.003

Compound: CCOC(=O)C(C(=O)OCC)C1=[N+]2C(=C(c3ccc(C)cc3)c3ccc(C(C(=O)OCC)C(=O)OCC)n3[B-]2(F)F)C=C1
photoluminescence quantum yield (in C1CCCCC1): 0.62
photoluminescence quantum yield (in C1CCOC1): 0.46
photoluminescence quantum yield (in CCOC(C)=O): 0.38
photoluminescence quantum yield (in CO): 0.35
photoluminescence quantum yield (in Cc1ccccc1): 0.89
photoluminescence quantum yield (in ClC(Cl)Cl): 0.59

Compound: CC(=O)Nc1ccc2c3cccc4cccc(c5cccc1c52)c43
photoluminescence quantum yield (in C1COCCO1): 0.56
photoluminescence quantum yield (in CC#N): 0.45
photoluminescence quantum yield (in CCCCOCCCC): 0.46
photoluminescence quantum yield (in CCOC(C)=O): 0.5

Compound: COc1ccc(-c2csc(/C(C#N)=C/c3ccc(C#N)cc3)n2)cc1
photoluminescence quantum yield (in CC#N): 0.008
photoluminescence quantum yield (in CCO): 0.008
photoluminescence quantum yield (in CN(C)C=O): 0.002
photoluminescence quantum yield (in Cc1ccccc1): 0.248
photoluminescence quantum yield (in ClCCl): 0.065

Compound: CCCCCCC(CCCCCC)N1C(=O)c2cccc3c(-c4cc(OC)c(OC)c(OC)c4)ccc(c23)C1=O
photoluminescence quantum yield (in CCCCCC): 0.41
photoluminescence quantum yield (in CCCCCCCCCCCCCC): 0.51
photoluminescence quantum yield (in CCCCCCCCCCCO): 0.26
photoluminescence quantum yield (in CCCCO): 0.022
photoluminescence quantum yield (in CN(C)C=O): 0.0065
photoluminescence quantum yield (in Cc1ccccc1): 0.71
photoluminescence quantum yield (in ClC(Cl)Cl): 0.65

Compound: COc1ccc(C2=C(c3ccc(OC)cc3)C(C)(C)c3sccc32)cc1
photoluminescence quantum yield (in C1CCCCC1): 0.02

Compound: COc1ccc(C2=C3C=CC(C)=[N+]3[B-](F)(F)n3c(C)ccc32)cc1
photoluminescence quantum yield (in C1CCCCC1): 0.42
photoluminescence quantum yield (in C1CCOC1): 0.36
photoluminescence quantum yield (in CC#N): 0.21
photoluminescence quantum yield (in CCOC(C)=O): 0.3
photoluminescence quantum yield (in CO): 0.25
photoluminescence quantum yield (in Cc1ccccc1): 0.52
photoluminescence quantum yield (in ClC(Cl)Cl): 0.46

Compound: COc1ccc(C2=C3C=CC(=[N+](C)C)C=C3[Si](C)(C)c3cc(N(C)C)ccc32)c(C)c1
photoluminescence quantum yield (in O): 0.29

Compound: COC(=O)c1c(C(=O)OC)c2ccc(-c3ccccc3)nn2c1C
photoluminescence quantum yield (in CCCCCC): 0.685

Compound: Cc1nnc(-c2cc(-n3c4ccccc4c4ccccc43)c(-n3c4ccccc4c4ccccc43)cc2-c2nnc(C)o2)o1
photoluminescence quantum yield (in Cc1ccccc1): 0.287

Compound: Cc1ccc2c(c1)c(C#N)c(C#N)c1cc(C)ccc12
photoluminescence quantum yield (in ClC(Cl)Cl): 0.15

Compound: COc1ccc(C2=C(c3ccc([N+](=O)[O-])cc3)C(c3ccccc3)=[N+]3C2=Nc2c(-c4ccc(OC)cc4)c(-c4ccc([N+](=O)[O-])cc4)c(-c4ccccc4)n2[B-]3(F)F)cc1
photoluminescence quantum yield (in Cc1ccccc1): 0.05

Compound: C(#Cc1nc2ccccc2s1)c1ccc(N(c2ccccc2)c2ccccc2)cc1
photoluminescence quantum yield (in Cc1ccccc1): 0.62

Compound: O=c1c2ccc(-c3ccc(N(c4ccccc4)c4ccccc4)cc3)cc2sc2cccc(-c3ccc(N(c4ccccc4)c4ccccc4)cc3)c12
photoluminescence quantum yield (in c1ccc2c(c1)c1ccccc1n2-c1ccc(-c2ccc(-n3c4ccccc4c4ccccc43)cc2)cc1): 0.025

Compound: CC(=O)Nc1ccc(C2=C/C(=C\c3ccc([N+](=O)[O-])cc3)C(=O)O2)cc1
photoluminescence quantum yield (in C1COCCO1): 0.043

Compound: Fc1ccc(N(c2ccc(F)cc2)c2ccc3c4cccc5c(N(c6ccc(F)cc6)c6ccc(F)cc6)ccc(c6cccc2c63)c54)cc1
photoluminescence quantum yield (in ClCCl): 0.64

Compound: c1ccc2c(c1)-c1ccccc1C21c2ccccc2N(c2ccc(-c3nc([C@]45CC6CC(C[C@@H](C6)C4)C5)nc([C@]45C[C@H]6C[C@@H](C[C@H](C6)C4)C5)n3)cc2)c2ccccc21
photoluminescence quantum yield (in CC1(C)c2ccccc2N(c2cccc(N3c4ccccc4C(C)(C)c4ccccc43)c2)c2ccccc21): 0.67
photoluminescence quantum yield (in CC(C)(C)c1ccc(-n2c3ccc([Si](c4ccccc4)(c4ccccc4)c4ccccc4)cc3c3cc([Si](c4ccccc4)(c4ccccc4)c4ccccc4)ccc32)cc1): 0.76
photoluminescence quantum yield (in Cc1cc(-n2c3ccccc3c3ccccc32)ccc1-c1ccc(-n2c3ccccc3c3ccccc32)cc1C): 0.36
photoluminescence quantum yield (in O=P(c1ccccc1)(c1ccccc1)c1ccc([Si](c2ccccc2)(c2ccccc2)c2ccccc2)cc1): 0.84

Compound: c1cc2c3c(cccc3c1)NC(c1ccc3ccc4cccc5ccc1c3c45)N2
photoluminescence quantum yield (in CC#N): 0.24
photoluminescence quantum yield (in CO): 0.05
photoluminescence quantum yield (in CS(C)=O): 0.08
photoluminescence quantum yield (in Cc1ccccc1): 0.51

From the Deep4Chem optical property database
